Measurements: PubChem BioAssay (NCI)
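The compound was tested at five concentrations on cells cultured in 96-well plates, with a 48-hour exposure period. GI50 = concentration required for 50% inhibition of growth. TGI: total growth inhibition.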

Experiments:
Experiment in all cases: NCI-60 cell line screen, 48 h
RPMI-8226 leukemia = tested on: RPMI-8226 leukemia
OVCAR-3 ovarian = tested on: OVCAR-3 ovarian
UACC-257 melanoma = tested on: UACC-257 melanoma
NCI-H522 lung = tested on: NCI-H522 lung
K-562 leukemia = tested on: K-562 leukemia
A549 NSCLC = tested on: A549 NSCLC
M14 melanoma = tested on: M14 melanoma
SNB-75 CNS = tested on: SNB-75 CNS
RXF 393 renal = tested on: RXF 393 renal
SR leukemia = tested on: SR leukemia

| Compound | TGI (RPMI-8226 leukemia) | TGI (OVCAR-3 ovarian) | TGI (UACC-257 melanoma) | TGI (NCI-H522 lung) | TGI (K-562 leukemia) | TGI (A549 NSCLC) | TGI (M14 melanoma) | GI50 (RPMI-8226 leukemia) | GI50 (OVCAR-3 ovarian) | GI50 (SNB-75 CNS) | TGI (SNB-75 CNS) | GI50 (UACC-257 melanoma) | GI50 (NCI-H522 lung) | GI50 (RXF 393 renal) | TGI (RXF 393 renal) | GI50 (K-562 leukemia) | GI50 (A549 NSCLC) | GI50 (M14 melanoma) | TGI (SR leukemia) |
| --- | --- | --- | --- | --- | --- | --- | --- | --- | --- | --- | --- | --- | --- | --- | --- | --- | --- | --- | --- |
| COc1ccc(/C=C2\Cc3ccccc3C2=O)cc1OC | > 100 µM | > 100 µM | > 100 µM | > 100 µM | > 100 µM | > 100 µM | > 100 µM |  |  |  |  |  |  |  |  |  |  |  |  |
| COC(=O)C[CH](C(=O)OC)[Ge]([CH3])([CH3])[S]c1ccccc1 (stereo unspecified) | 56.7 µM | 38.8 µM | > 100 µM | 10.3 µM | > 100 µM | > 100 µM | 57.5 µM | 17.1 µM | 15.1 µM | 22.1 µM | 72.2 µM | 33 µM | 2.94 µM | 37.9 µM | 55.9 µM | 17.4 µM | 43.9 µM | 21.5 µM |  |
| COC(=O)c1c[nH]c(=O)[nH]c1=O | > 100 µM | > 100 µM | > 100 µM | > 100 µM | > 100 µM | > 100 µM | > 100 µM |  |  |  | > 100 µM |  |  |  |  |  |  |  | > 100 µM |
| COC(=O)/C=C/C(=O)C1C(C(=O)OC)C2(C(=O)OC)CCC1(C(=O)OC)N2 (stereo unspecified) | > 100 µM | > 100 µM |  |  | > 100 µM | > 100 µM | > 100 µM |  |  |  |  |  |  |  | > 100 µM |  |  |  | > 100 µM |
| COc1ccccc1/C=C\c1cnnc2ccccc12 | > 10 µM | > 10 µM | > 10 µM | > 10 µM | > 10 µM | > 10 µM | > 10 µM |  |  |  | > 10 µM |  |  |  | > 10 µM |  |  |  |  |
| COc1ccc(/C(C)=C(\c2ccc(Cl)cc2)c2ccc(OCCN3CCCC3)cc2)cc1 | 10 µM | 9.79 µM | 9.24 µM | 9.11 µM | 7.23 µM | 8.43 µM | 1.95 µM | 3.66 µM | 5.16 µM | 4.29 µM | 8.58 µM | 4.6 µM | 4.39 µM | 3.39 µM | 7.93 µM | 1.25 µM | 3.97 µM | 0.752 µM |  |
| O=P(Oc1ccc(Cl)cc1)(Oc1ccc(Cl)cc1)N1CC1 | > 10 µM | > 10 µM | > 10 µM |  | > 10 µM | > 10 µM | > 10 µM |  |  |  | > 10 µM |  |  |  |  |  |  |  | > 10 µM |
| C=C(CN1CCN(c2ccccc2OC)CC1)c1ccc(C(=O)Nc2ccccc2N)cc1 | > 50 µM | 19.7 µM |  |  | > 50 µM | 35.5 µM | > 50 µM | 5.11 µM | 5.64 µM |  |  |  |  |  |  | > 50 µM | 11.2 µM | 12.1 µM |  |
| CC(C)[C@@H]1C=C(c2ccccc2)c2ccccc2C1C(C#N)(C#N)C(C)C (stereo partly specified) | > 100 µM | > 100 µM | > 100 µM |  | > 100 µM | > 100 µM | > 100 µM |  |  |  | > 100 µM |  |  |  | > 100 µM |  |  |  | > 100 µM |
| COc1cc([C@@H]2c3cc4c(cc3[C@@H](NC(=O)c3ccc(N)cc3)C3COC(=O)[C@@H]32)OCO4)cc(OC)c1O (stereo partly specified) | 20.2 µM | 30.4 µM | > 100 µM | 9.23 µM | 37.7 µM | 12.8 µM | > 100 µM |  |  |  | 6.56 µM |  |  |  | 67.6 µM |  |  |  |  |
| N#Cc1cccc(NC(=O)c2ccc(C(=O)O)c(C(=O)c3ccc(C(=O)O)c(C(=O)Nc4cccc(C#N)c4)c3)c2)c1 | > 100 µM | > 100 µM | > 100 µM | > 100 µM | > 100 µM | > 100 µM | > 100 µM |  |  |  | > 100 µM |  |  |  | > 100 µM |  |  |  |  |
| Oc1ccc2oc3ncc(Cl)c(-c4ccccc4)c3c2c1 | > 100 µM | > 100 µM | > 100 µM | > 100 µM | > 100 µM | > 100 µM | > 100 µM | > 100 µM | > 100 µM | > 100 µM | > 100 µM | > 100 µM | > 100 µM | > 100 µM | > 100 µM | > 100 µM | > 100 µM | > 100 µM |  |
| CCC1C(C)c2c([nH]c3ccccc23)C2C(=O)N(c3ccccc3)C(=O)C21 (stereo unspecified) | 40.9 µM | 27.1 µM |  |  | 44.3 µM | 48.5 µM | 33.4 µM |  |  |  | 39.4 µM |  |  |  | 26 µM |  |  |  | 47.3 µM |
| OCC(O)C(O)c1nn(-c2ccccc2)c2nc3cc(Cl)c(Cl)cc3nc12 (stereo unspecified) | > 100 µM | 92.1 µM | > 100 µM | > 100 µM | > 100 µM | 57.4 µM | > 100 µM |  |  |  | 52 µM |  |  |  | 47.4 µM |  |  |  |  |
| O=C(CC(=O)N1N=C(c2ccccc2)C(N=Nc2ccc(C(=O)O)cc2)C1=O)Nc1ccc(F)cc1 (stereo unspecified) | 99 µM | 56.2 µM | > 100 µM | 33.3 µM | > 100 µM | > 100 µM | > 100 µM |  |  |  |  |  |  |  | 25.3 µM |  |  |  |  |
